± gives the standard deviation of the averaged measurements.
What was measured:
[1] = system: S462; assay: % inhibition of CellTiter-Glo viability at highest tested concentration (72 h), relative to DMSO and benzethonium chloride controls; higher = more inhibition
In short: (§1)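 For this screen, 384-well plates were preprinted with each compound at five concentrations in 10-fold steps and seeded with MPNST cell lines or primary human Schwann cells at 750–1000 cells per well. Incubation lasted 72 h at 37 °C, 5% CO2, and CellTiter-Glo ATP luminescence, scaled between vehicle and positive-control wells and averaged over duplicates where available, served as viability. Logistic fits with four parameters were applied. Relative IC50 (censored at the top concentration) and drug sensitivity score derive from these fits, and percent inhibition is at the top concentration.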

[2] = system: S1507-2; assay: as above
In short: as §1

[3] = system: HS-Sch-2; assay: as above
In short: as §1

[4] = system: STS26T; assay: as above
In short: as §1

[5] = system: HSC2 (primary human Schwann cells); assay: as above
In short: as §1

[6] = system: ST8814; assay: as above
In short: as §1

[7] = system: HS-PSS; assay: as above
In short: as §1

[8] = system: YST-1; assay: as above
In short: as §1

[9] = system: HSC1 (primary human Schwann cells); assay: as above
In short: as §1

[10] = system: S1507-2; assay: drug sensitivity score (DSS, CellTox-Green cytotoxicity, 72 h) (DSS (dimensionless)); higher = more cytotoxic; extreme values may be limits of the assay
In short: (§2)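 MPNST cell lines and primary human Schwann cells were grown for 72 h at 37 °C in 384-well plates containing five 10-fold compound dilutions. CellTox-Green, added before seeding at a final 1:1000 dilution, gave fluorescence from DNA released by disrupted cells, and signals were scaled to vehicle and positive-control wells. Curves were fitted with a four-parameter logistic model. Drug sensitivity score and relative IC50 come from these fits, with IC50 censored at the top concentration.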

[11] = system: STS26T; assay: as above
In short: as §2

[12] = system: HSC2 (primary human Schwann cells); assay: as above
In short: as §2

[13] = system: ST8814; assay: as above
In short: as §2

[14] = system: HS-PSS; assay: as above
In short: as §2

[15] = system: HSC1 (primary human Schwann cells); assay: as above
In short: as §2

[16] = system: S462; assay: drug sensitivity score (DSS, CellTiter-Glo viability, 72 h) (DSS (dimensionless)); higher = more sensitive; extreme values may be limits of the assay
In short: as §1

[17] = system: S1507-2; assay: as above
In short: as §1

[18] = system: HS-Sch-2; assay: as above
In short: as §1

[19] = system: STS26T; assay: as above
In short: as §1

[20] = system: HSC2 (primary human Schwann cells); assay: as above
In short: as §1

[21] = system: ST8814; assay: as above
In short: as §1

[22] = system: HS-PSS; assay: as above
In short: as §1

[23] = system: YST-1; assay: as above
In short: as §1

[24] = system: HSC1 (primary human Schwann cells); assay: as above
In short: as §1

Row | SMILES | % inhibition [1] [%] | % inhibition [2] [%] | % inhibition [3] [%] | % inhibition [4] [%] | % inhibition [5] [%] | % inhibition [6] [%] | % inhibition [7] [%] | % inhibition [8] [%] | % inhibition [9] [%] | drug sensitivity score [10] | drug sensitivity score [11] | drug sensitivity score [12] | drug sensitivity score [13] | drug sensitivity score [14] | drug sensitivity score [15] | drug sensitivity score [16] | drug sensitivity score [17] | drug sensitivity score [18] | drug sensitivity score [19] | drug sensitivity score [20] | drug sensitivity score [21] | drug sensitivity score [22] | drug sensitivity score [23] | drug sensitivity score [24]
1 | CNC(=O)c1cc(Oc2ccc(NC(=O)Nc3cc(C(C)(C)C)nn3-c3ccc4ncccc4c3)c(F)c2)ccn1 [Rebastinib] (max concentration tested 1000 nM) | -0.0982 ± 1.4 | -4.17 ± 6.4 | -12.3 | -1.27 | -5.07 | -2.38 | -1.59 | 0.76 | 0.317 | 0 | 0 | 0 | 0 | 0 | 0 | 0 | 0 | 0 | 0 | 0 | 0 | 0 | 0 | 0
2 | COc1cc(F)c(F)c(Nc2ccc(I)cc2F)c1NS(=O)(=O)C1(C[C@H](O)CO)CC1 [Refametinib] (max concentration tested 10000 nM) | 94.83 ± 0.55 | 86.7 ± 4.6 | 75.5 | 53 | 69 | 99.1 | 63.2 | 17.5 | 69.2 | 11.1 ± 3.6 | 1.17 | 0.276 | 8.62 | 0.98 | 0 | 14.9 ± 1.8 | 13.8 ± 1.3 | 6.81 | 8.43 | 10.5 | 14.8 | 5.39 | 0.24 | 8.11
3 | CNC(=O)c1cc(Oc2ccc(NC(=O)Nc3ccc(Cl)c(C(F)(F)F)c3)c(F)c2)ccn1 [Regorafenib] (max concentration tested 10000 nM) | 80.9 ± 5.1 | 33.7 ± 17 | 84.1 | 49.9 | 78.6 | 74.2 | 43 | 73 | 73.8 | 0 | 0.529 | 0 | 1.04 | 0 | 0 | 7.19 ± 0.46 | 2.21 ± 1.2 | 4.17 | 4.35 | 6.19 | 7.57 | 1.9 | 6.49 | 4.61
4 | CO[C@H]1C[C@@H]2CC[C@@H](C)[C@@](O)(O2)C(=O)C(=O)N2CCCC[C@H]2C(=O)O[C@H]([C@H](C)C[C@@H]2CC[C@@H](OP(C)(C)=O)[C@H](OC)C2)CC(=O)[C@H](C)/C=C(\C)[C@@H](O)[C@@H](OC)C(=O)[C@H](C)C[C@H](C)/C=C/C=C/C=C/1C [Ridaforolimus] (max concentration tested 100 nM) | 40.4 ± 5.1 | 35.9 ± 0.46 | 31 | 48.8 | 52.6 | 32.1 | 28.6 | 43.6 | 51.5 | 0 | 0 | 0 | 0 | 0 | 0 | 8.13 ± 1.3 | 7.07 ± 0.28 | 4.49 | 13.1 | 15.8 | 8.41 | 5.02 | 9.63 | 16.8
5 | CS(=O)(=O)c1ccc(C2=C(c3ccccc3)C(=O)OC2)cc1 [Rofecoxib] (max concentration tested 10000 nM) | -1.92 ± 0.69 | 3.17 ± 6.5 | -5.42 | -0.415 | -0.797 | 3.44 | -0.36 | 1.11 | 2.15 | 0 | 0 | 0 | 0 | 0 | 0 | 0 | 0 | 0 | 0 | 0 | 0 | 0 | 0 | 0
6 | CN(C)C[C@@H]1CCn2cc(c3ccccc32)C2=C(C(=O)NC2=O)c2cn(c3ccccc23)CCO1 [Ruboxistaurin] (max concentration tested 10000 nM) | 78.9 ± 11 | 98.5 ± 4.9 | 100 | 97.6 | 96.3 | 39.6 | 86.7 | 99.7 | 93.9 | 6.69 ± 0.61 | 6.98 | 8.33 | 0.807 | 1.36 | 7.83 | 6.12 ± 0.41 | 7.37 ± 0.77 | 5.19 | 5.76 | 7.78 | 3.54 | 5.24 | 10 | 5.06
7 | CNCc1ccc(-c2[nH]c3cc(F)cc4c3c2CCNC4=O)cc1 [Rucaparib] (max concentration tested 10000 nM) | 27.7 ± 9 | -0.362 ± 7.1 | 22.2 | 4.71 | 8.78 | 4.21 | 30.1 | 60.9 | 4.91 | 3.1 ± 4.4 | 0 | 0 | 0 | 0 | 0 | 2.11 ± 0.82 | 0 | 1.1 | 0 | 0 | 0 | 2.72 | 8.59 | 0

Source: the supplement of paper PMC5579334
